Results from the supplement of paper PMC10307832.

How the values were obtained:
Assay in all cases: relative viability (nuclei count vs DMSO), 5 days (fraction); higher = more cells survive
[1] = compound: CCN(CC)CCNC(=O)c1c(C)[nH]c(/C=C2\C(=O)Nc3ccc(F)cc32)c1C [Sunitinib] + CC(=O)Nc1cccc(-n2c(=O)n(C3CC3)c(=O)c3c(Nc4ccc(I)cc4F)n(C)c(=O)c(C)c32)c1 [Trametinib] (partner 0.02 µM)
Procedure, shortened: (§1)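 For relative viability, nuclei counts in treated wells were divided by those in vehicle wells. Lung cancer cell lines had been pin-tool dosed in 1536-well plates the day after seeding and cultured for 5 days, then fixed and stained in one step (final 0.05% Triton X-100, 1% formaldehyde, 1 ug/ml Hoechst) and imaged at 4×. Doses were one drug alone or a fixed anchor-drug dose plus five library-drug doses (not always all listed) in √10 steps, and values are duplicate-plate medians.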

[2] = compound: CCN(CC)CCNC(=O)c1c(C)[nH]c(/C=C2\C(=O)Nc3ccc(F)cc32)c1C [Sunitinib] + O=C(c1cc(Cc2n[nH]c(=O)c3ccccc23)ccc1F)N1CCN(C(=O)C2CC2)CC1 [Olaparib] (partner 8 µM)
Procedure, shortened: as §1

[3] = compound: CCN(CC)CCNC(=O)c1c(C)[nH]c(/C=C2\C(=O)Nc3ccc(F)cc32)c1C [Sunitinib] + CS(=O)(=O)CCNCc1ccc(-c2ccc3ncnc(Nc4ccc(OCc5cccc(F)c5)c(Cl)c4)c3c2)o1 [Lapatinib] (partner 2 µM)
Procedure, shortened: as §1

[4] = compound: CCN(CC)CCNC(=O)c1c(C)[nH]c(/C=C2\C(=O)Nc3ccc(F)cc32)c1C [Sunitinib] + N=C(N)NC(=N)NCCc1ccccc1 [Phenformin] (partner 250 µM)
Procedure, shortened: as §1

Cell Line	relative viability ([1]; first compound 0.02 µM)	relative viability ([1]; first compound 0.06325 µM)	relative viability ([1]; first compound 0.2 µM)	relative viability ([1]; first compound 0.6325 µM)	relative viability ([1]; first compound 2 µM)	relative viability ([2]; first compound 0.02 µM)	relative viability ([2]; first compound 0.06325 µM)	relative viability ([2]; first compound 0.6325 µM)	relative viability ([2]; first compound 2 µM)	relative viability ([3]; first compound 0.02 µM)	relative viability ([3]; first compound 0.06325 µM)	relative viability ([3]; first compound 0.2 µM)	relative viability ([3]; first compound 0.6325 µM)	relative viability ([3]; first compound 2 µM)	relative viability ([2]; first compound 0.2 µM)	relative viability ([4]; first compound 0.02 µM)	relative viability ([4]; first compound 0.2 µM)	relative viability ([4]; first compound 0.6325 µM)	relative viability ([4]; first compound 2 µM)	relative viability ([4]; first compound 0.06325 µM)
NCI-H1648	0.502	0.529	0.524	0.445	0.499	1.11	0.583	0.751	0.707	–	–	–	–	–	–	–	–	–	–	–
NCI-H23	0.345	0.348	0.334	0.391	0.351	0.353	0.28	0.312	0.307	1.1	1.42	1.44	1.36	1.08	0.307	0.753	0.93	0.878	0.763	–
LXF-289	0.621	0.714	0.679	0.728	0.689	1.03	1.06	1.11	1.12	0.903	–	0.948	0.984	–	1.2	0.461	0.548	0.533	0.511	0.517
HCC-44	1.06	1.14	1.1	1.08	–	0.958	0.97	1	1.05	1.06	1	1.09	0.985	–	0.979	0.29	0.274	0.145	0.142	0.238
EMC-BAC-2	0.868	0.932	0.966	0.99	1.12	0.462	0.52	0.529	0.582	0.839	0.959	1.01	–	0.891	0.539	0.489	0.595	0.559	0.543	0.566
NCI-H522	–	0.672	0.667	0.783	0.794	0.623	0.574	0.616	0.641	–	–	–	–	–	0.75	0.602	0.659	0.673	0.756	0.79
NCI-H1975	0.322	0.361	0.33	0.421	0.316	0.742	0.8	0.868	0.714	0.815	1.1	1.14	0.981	0.763	0.946	0.399	0.425	0.427	0.393	0.442
PC-14	0.665	0.743	0.833	0.771	0.579	0.292	0.334	0.335	0.211	0.301	0.332	0.369	0.33	0.314	0.196	0.557	0.674	0.568	0.571	0.552
